Data taken from patent US20190261630A1, “USE OF PYRAZIFLUMID FOR CONTROLLING SCLEROTINIA SPP IN SEED TREATMENT APPLICATIONS” (Bayer CropScience Aktiengesellschaft, priority 2016, published 2019).
Read-outs that look alike come from different tables or passages of the source.

Assays:
Format in all cases: in vivo
[1] = system: Sclerotinia sclerotiorum; assay: Seed treatment test, control efficacy against ascospore infection in soybean, greenhouse (Example A, Tests 1-6); settings: for pest or weed control at 25 g/100 kg seed: soybean seed treatment 25 g a.i./100 kg seed; for pest or weed control at 50 g/100 kg seed: soybean seed treatment 50 g a.i./100 kg seed; for pest or weed control at 70 g/100 kg seed / pest or weed control at 140 g/100 kg seed / pest or weed control at 35 g/100 kg seed: read-out: Sclerotinia sclerotiorum Control efficacy %; for pest or weed control at 10 g/100 kg seed: soybean seed treatment 10 g a.i./100 kg seed
Description: (§1) The test is performed under greenhouse conditions.
(§2) Soybean seeds, treated to the desired dosages with the active compound solved in N-methyl-2-pyrrolidon and diluted with water, were sown in 6×6 cm pots (one seed per pot) filled with 1:1 mixture of steamed loam soil and quartz sand.
(§3) The plants were grown at 24° C. and 90% relative humidity in a greenhouse. Ascospores of Sclerotinia sclerotiorum were collected from 3 month old asci. Whole aerial surface of 19-25-day-old seedlings were sprayed with water suspension of the ascospores. The plants were kept for 48-96 hours in the dark at 24° C. and a relative humidity of 99%.
(§4) Assessment consisted of evaluation of infected area of the unifoliate leaves. Zero % means infection which corresponds to that of the untreated check, while an efficacy of 100% means that no infection was observed.
The control efficacy is based on % infected leaf area.
Moreover, the tests were performed with different batches of plants.

[2] = system: soybean plants; assay: Damage on plants after seed treatment, relative growth inhibition in non-inoculated plants (Example A, Tests 1-6)
Description: as §1, §2, §3

[3] = system: Sclerotinia sclerotiorum; assay: Spray test (dwarf beans), preventive control efficacy (Example B, Test 7); settings: spray treatment 100 mg ai/Liter, dwarf bean, 10 days old plants, incubation 3 days
Description: (§5) Solvent: 24.5 parts by weight of acetone • 24.5 parts by weight of dimethylacetamide
(§6) Emulsifier: 1 part by weight of alkylaryl polyglycol ether
(§7) To produce a suitable preparation of active compound, 1 part by weight of active compound is mixed with the stated amounts of solvent and emulsifier, and the concentrate is diluted with water to the desired concentration.
(§8) To test for preventive activity, unifoliate leaves of 10 day-old plants are sprayed with the preparation of active compound. After the spray coating has dried on, 2 small pieces of agar covered with growth of Sclerotinia sclerotiorum are placed on each leaf. The inoculated plants are placed in a darkened chamber at approximately 20° C. and a relative atmospheric humidity of 100%.
3 days after the inoculation, the size of the lesions on the leaves is evaluated. 0% means an efficacy which corresponds to that of the untreated control, while an efficacy of 100% means that no disease is observed.

[4] = system: dwarf beans; assay: Damage on plants in spray test (Example B, Test 7); settings: spray treatment 100 mg ai/Liter, dwarf bean
Description: as §5, §6, §7, §8

[5] = system: Sclerotinia sclerotiorum; assay: Seed treatment test (soybean) with current standards, control efficacy (Example B, Test 8); settings: soybean seed treatment 50 g a.i./100 kg seed, incubation 3 days, inoculation 27 days after sowing
Description: as §2
(§9) The plants were grown at 24° C. and 90% relative humidity in a greenhouse. Ascospores of Sclerotinia sclerotiorum were collected from 3 month old asci. Whole aerial surface of 27 day-old seedlings were sprayed with water suspension of the ascospores. The plants were kept for 72 hours in the dark at 24° C. and a relative humidity of 99%.
as §4

[6] = system: soybean plants; assay: Damage on plants after seed treatment, emergence inhibition (Example B, Test 8); settings: soybean seed treatment 50 g a.i./100 kg seed
Description: as §2, §9

[7] = Sclerotinia sclerotiorum, 72 h, Test 1, incubation 3 days, inoculation 19 days after sowing
[8] = Test 1, soybean seed treatment 25 g a.i./100 kg seed
[9] = Test 1, soybean seed treatment 50 g a.i./100 kg seed
[10] = Sclerotinia sclerotiorum, 96 h, Test 4, incubation 4 days, inoculation 25 days after sowing
[11] = Sclerotinia sclerotiorum, 48 h, Test 3, incubation 2 days, inoculation 20 days after sowing
[12] = Sclerotinia sclerotiorum, 72 h, Test 6, incubation 3 days, inoculation 22 days after sowing
[13] = Test 3, soybean seed treatment 70 g a.i./100 kg seed
[14] = Test 6, soybean seed treatment 70 g a.i./100 kg seed
[15] = Sclerotinia sclerotiorum, 48 h, Test 5, incubation 2 days, inoculation 21 days after sowing
[16] = Example A, soybean seed treatment
[17] = Sclerotinia sclerotiorum, 48 h, Test 3, soybean seed treatment 70 g a.i./100 kg seed, incubation 2 days, inoculation 20 days after sowing
[18] = Sclerotinia sclerotiorum, 48 h, Test 3, soybean seed treatment 140 g a.i./100 kg seed, incubation 2 days, inoculation 20 days after sowing
[19] = Sclerotinia sclerotiorum, 72 h, Test 6, soybean seed treatment 70 g a.i./100 kg seed, incubation 3 days, inoculation 22 days after sowing
[20] = Sclerotinia sclerotiorum, 72 h, Test 6, soybean seed treatment 140 g a.i./100 kg seed, incubation 3 days, inoculation 22 days after sowing
[21] = Test 6, soybean seed treatment 140 g a.i./100 kg seed

CC(C)ON=C(CNC(=O)c1ccccc1C(F)(F)F)c1ncc(Cl)cc1Cl
pest or weed control at 25 g/100 kg seed [1, 7]: 5%
pest or weed control at 50 g/100 kg seed [1, 7]: 53%
Damage on plants (relative growth inhibition in non-inoculated plants compared to untreated plants: in %) [2, 8]: 0%
Damage on plants (relative growth inhibition in non-inoculated plants compared to untreated plants: in %) [2, 9]: 0%

Cc1nc2c(F)c(F)ccc2cc1Oc1cccc(F)c1C(C)(C)O
pest or weed control at 70 g/100 kg seed ([1]; Sclerotinia sclerotiorum, 96 h): 0%
pest or weed control at 140 g/100 kg seed ([1]; Sclerotinia sclerotiorum, 96 h): 99%

O=S(=O)(Nc1ncc(C(F)(F)F)cc1Cl)c1ccccc1Cl
pest or weed control at 10 g/100 kg seed [1, 10]: 73%
pest or weed control at 50 g/100 kg seed [1, 10]: 70%
Damage on plants (relative growth inhibition in non-inoculated plants compared to untreated plants: in %) ([2]; Test 4, soybean seed treatment 10 g a.i./100 kg seed): 17%
Damage on plants (relative growth inhibition in non-inoculated plants compared to untreated plants: in %) ([2]; Test 4, soybean seed treatment 50 g a.i./100 kg seed): 8%

O=c1c2cc(F)ccc2nc(-n2cncn2)n1-c1ccc(Cl)cc1Cl [Fluquinconazole]
pest or weed control at 25 g/100 kg seed [1, 11]: 83%
pest or weed control at 50 g/100 kg seed [1, 11]: 86%
pest or weed control at 25 g/100 kg seed [1, 12]: 0%
pest or weed control at 50 g/100 kg seed [1, 12]: 2%
Damage on plants (relative growth inhibition in non-inoculated plants compared to untreated plants: in %) ([2]; Test 3, soybean seed treatment 25 g a.i./100 kg seed): 0%
Damage on plants (relative growth inhibition in non-inoculated plants compared to untreated plants: in %) ([2]; Test 3, soybean seed treatment 50 g a.i./100 kg seed): 0%
Damage on plants (relative growth inhibition in non-inoculated plants compared to untreated plants: in %) ([2]; Test 6, soybean seed treatment 25 g a.i./100 kg seed): 0%
Damage on plants (relative growth inhibition in non-inoculated plants compared to untreated plants: in %) ([2]; Test 6, soybean seed treatment 50 g a.i./100 kg seed): 0%

N#Cc1ccccc1NC(=O)c1snc(Cl)c1Cl [Isotianil]
pest or weed control at 35 g/100 kg seed ([1]; Sclerotinia sclerotiorum, 48 h): 46%
pest or weed control at 70 g/100 kg seed ([1]; Sclerotinia sclerotiorum, 48 h): 65%
pest or weed control at 35 g/100 kg seed ([1]; Sclerotinia sclerotiorum, 72 h): 15%
pest or weed control at 70 g/100 kg seed ([1]; Sclerotinia sclerotiorum, 72 h): 18%
Damage on plants (relative growth inhibition in non-inoculated plants compared to untreated plants: in %) ([2]; Test 3, soybean seed treatment 35 g a.i./100 kg seed): 11%
Damage on plants (relative growth inhibition in non-inoculated plants compared to untreated plants: in %) [2, 13]: 0%
Damage on plants (relative growth inhibition in non-inoculated plants compared to untreated plants: in %) ([2]; Test 6, soybean seed treatment 35 g a.i./100 kg seed): 0%
Damage on plants (relative growth inhibition in non-inoculated plants compared to untreated plants: in %) [2, 14]: 0%

CC(O)(Cn1cncn1)c1ccc(Oc2ccc(Cl)cc2)cc1C(F)(F)F (centres unmarked) [Mefentrifluconazole]
pest or weed control at 10 g/100 kg seed [1, 15]: 90%
pest or weed control at 25 g/100 kg seed [1, 15]: 84%
Damage on plants (relative growth inhibition in non-inoculated plants compared to untreated plants: in %) ([2]; Test 5, soybean seed treatment 10 g a.i./100 kg seed): 0%
Damage on plants (relative growth inhibition in non-inoculated plants compared to untreated plants: in %) ([2]; Test 5, soybean seed treatment 25 g a.i./100 kg seed): 10%

O=C(Nc1ccccc1-c1ccc(F)c(F)c1)c1nccnc1C(F)(F)F [Pyraziflumid]
control efficacy against ascospore infection of Sclerotinia Sclerotiorum (in words) [1, 16]: excellent control efficacy
pest or weed control at 70 g/100 kg seed [1, 17]: 87%
pest or weed control at 140 g/100 kg seed [1, 18]: 95%
pest or weed control at 75 g/100 kg seed ([1]; Sclerotinia sclerotiorum, 48 h, Test 5, soybean seed treatment 75 g a.i./100 kg seed, incubation 2 days, inoculation 21 days after sowing): 98%
pest or weed control at 25 g/100 kg seed [1, 7]: 96%
pest or weed control at 50 g/100 kg seed [1, 7]: 95%
pest or weed control at 70 g/100 kg seed [1, 19]: 36%
pest or weed control at 140 g/100 kg seed [1, 20]: 33%
pest or weed control at 70 g/100 kg seed ([1]; Sclerotinia sclerotiorum, 96 h, Test 2, soybean seed treatment 70 g a.i./100 kg seed, incubation 4 days, inoculation 22 days after sowing): 58%
pest or weed control at 140 g/100 kg seed ([1]; Sclerotinia sclerotiorum, 96 h, Test 2, soybean seed treatment 140 g a.i./100 kg seed, incubation 4 days, inoculation 22 days after sowing): 86%
pest or weed control at 70 g/100 kg seed ([1]; Sclerotinia sclerotiorum, 96 h, Test 4, soybean seed treatment 70 g a.i./100 kg seed, incubation 4 days, inoculation 25 days after sowing): 80%
pest or weed control at 140 g/100 kg seed ([1]; Sclerotinia sclerotiorum, 96 h, Test 4, soybean seed treatment 140 g a.i./100 kg seed, incubation 4 days, inoculation 25 days after sowing): 90%
damage on soybean plants (in words) [2, 16]: without giving any damage
Damage on plants (relative growth inhibition in non-inoculated plants compared to untreated plants: in %) [2, 8]: 0%
Damage on plants (relative growth inhibition in non-inoculated plants compared to untreated plants: in %) [2, 9]: 0%
Damage on plants (relative growth inhibition in non-inoculated plants compared to untreated plants: in %) ([2]; Test 2, soybean seed treatment 70 g a.i./100 kg seed): 0%
Damage on plants (relative growth inhibition in non-inoculated plants compared to untreated plants: in %) ([2]; Test 2, soybean seed treatment 140 g a.i./100 kg seed): 0%
Damage on plants (relative growth inhibition in non-inoculated plants compared to untreated plants: in %) [2, 13]: 0%
Damage on plants (relative growth inhibition in non-inoculated plants compared to untreated plants: in %) ([2]; Test 3, soybean seed treatment 140 g a.i./100 kg seed): 0%
Damage on plants (relative growth inhibition in non-inoculated plants compared to untreated plants: in %) ([2]; Test 4, soybean seed treatment 70 g a.i./100 kg seed): 0%
Damage on plants (relative growth inhibition in non-inoculated plants compared to untreated plants: in %) ([2]; Test 4, soybean seed treatment 140 g a.i./100 kg seed): 0%
Damage on plants (relative growth inhibition in non-inoculated plants compared to untreated plants: in %) ([2]; Test 5, soybean seed treatment 75 g a.i./100 kg seed): 0%
Damage on plants (relative growth inhibition in non-inoculated plants compared to untreated plants: in %) [2, 14]: 0%
Damage on plants (relative growth inhibition in non-inoculated plants compared to untreated plants: in %) [2, 21]: 30%

CC1(C)N=C(c2cnc3ccccc3c2)c2ccccc2C1(F)F [Quinofumelin]
pest or weed control at 70 g/100 kg seed [1, 19]: 16%
pest or weed control at 140 g/100 kg seed [1, 20]: 1%
Damage on plants (relative growth inhibition in non-inoculated plants compared to untreated plants: in %) [2, 14]: 0%
Damage on plants (relative growth inhibition in non-inoculated plants compared to untreated plants: in %) [2, 21]: 0%

CC1(C)N=C(c2cnc3ccccc3c2)c2ccccc2C1(F)F [drawing 23]
pest or weed control at 70 g/100 kg seed [1, 17]: 72%
pest or weed control at 140 g/100 kg seed [1, 18]: 96%

O=C(NCCc1ncc(C(F)(F)F)cc1Cl)c1ccccc1C(F)(F)F [fluopyram]
Sclerotinia sclerotiorum Control efficacy % [3]: 100%
Damage on plants (in %) [4]: 0%
Sclerotinia sclerotiorum Control efficacy % [5]: 68%
Damage on plants (emergence inhibition in %) [6]: 25%

CON(C(=O)c1cn(C)nc1C(F)F)C(C)Cc1c(Cl)cc(Cl)cc1Cl (centres unmarked) [pydiflumetofen]
Sclerotinia sclerotiorum Control efficacy % [3]: 100%
Damage on plants (in %) [4]: 0%
Sclerotinia sclerotiorum Control efficacy % [5]: 0%
Damage on plants (emergence inhibition in %) [6]: 0%
